In patent US11285226B2, “Aryl ethene derivative and pharmaceutical composition containing same as active ingredient” (priority 2016, dated 2022):
Read-outs that look alike come from different tables or passages of the source.

Legend:
[1] = type: in vitro ADME, rat; details: 1 μM, 30 minutes, 37° C.
Description: 2) Microsomal Stability Evaluation
(§2) Four liver microsomes (Human, Dog, Rat, Mouse 0.5 mg/ml) with a 0.1 M phosphate buffer solution (pH 7.4), and the arylethene derivative of the present invention were added to a concentration of 1 μM, culturing was performed at 37° C. for 5 minutes in advance, a NADPH regeneration system solution was added thereto, and culturing was performed at 37° C. for 30 minutes. Thereafter, in order to complete the reaction, an acetonitrile solution containing an internal standard material (chlorpropamide) was added thereto, centrifugation (14,000 rpm, 4° C.) was performed for 5 minutes, and a supernatant was injected into a LC-MS/MS system to analyze the substrate drug, thereby evaluating metabolism stability to the arylethene derivative of the present invention.

[2] = type: in vitro ADME, human; details: 1 μM, 30 minutes, 37° C.
Description: 2) Microsomal Stability Evaluation
as §2

ERRγ = type: cell-based; details: for Functional Assay, Cpds/Ref 5182: activity relative to reference compound GSK5182; for Functional Assay at 10 μM (% of control), Cpds: AD293, 24 hours
Description: AD293 was cultured in a 24-well plate for 24 hours, using a DMEM High glucose culture medium (Hyclone, USA) to which 0.5% FBS was added at a concentration of 9×10^4/well. The culture medium was replaced with a DMEM High glucose culture medium to which 10% FBS was added, treatment was performed with a mixture of a TransIT-LT1 transfection reagent (Minis, USA) and pCMX-Gal4-ERRγ, pFR-luciferase reporter plasmid, pCMV-β-gal, and culturing was performed for 24 hours. Thereafter, a luciferase activity assay and a β-gal assay were performed, respectively, with a lysate obtained after treatment with the arylethene derivative of the present invention for 24 hours. All results were derived from three or more independent repetitive experiments.

[3] = type: in vivo; details: rat; for BA: PO 10 mg/kg vs IV 1 mg/kg
Description: An oral administration group fasts the day before.
Blood of each animal is collected at 0 hour.
Into a tail vein of an intravenous administration group (IV), a drug is injected at a dose of 1 mg/kg (syringe).
To an oral administration group (PO), a drug is orally administered at a dose of 10 mg/kg (oral zondec)
After administration, blood of the intravenous administration group was collected through a jugular vein 8 times at 0.08, 0.25, 0.5, 1, 2, 4, 6, and 8 hours. One collected blood amount is 400 to 500 ul.
After administration, blood of the oral administration group was collected through a jugular vein 6 times at 0.25, 0.5, 1, 4, 6 and 8 hours. One collected blood amount is 400 to 500 ul.
Supernatant plasma is collected by a centrifuge.
The supernatant plasma was injected into a LC-MS/MS system and the drug is analyzed.

CYP3A4 = CYP3A4 (Homo sapiens (Human), UniProt P08684); assay: Cytochrome P450 activity inhibition, CYP3A4; type: in vitro ADME; details: 10 μM, human liver microsomes
Chain of CYP3A4 (P08684 whole entry): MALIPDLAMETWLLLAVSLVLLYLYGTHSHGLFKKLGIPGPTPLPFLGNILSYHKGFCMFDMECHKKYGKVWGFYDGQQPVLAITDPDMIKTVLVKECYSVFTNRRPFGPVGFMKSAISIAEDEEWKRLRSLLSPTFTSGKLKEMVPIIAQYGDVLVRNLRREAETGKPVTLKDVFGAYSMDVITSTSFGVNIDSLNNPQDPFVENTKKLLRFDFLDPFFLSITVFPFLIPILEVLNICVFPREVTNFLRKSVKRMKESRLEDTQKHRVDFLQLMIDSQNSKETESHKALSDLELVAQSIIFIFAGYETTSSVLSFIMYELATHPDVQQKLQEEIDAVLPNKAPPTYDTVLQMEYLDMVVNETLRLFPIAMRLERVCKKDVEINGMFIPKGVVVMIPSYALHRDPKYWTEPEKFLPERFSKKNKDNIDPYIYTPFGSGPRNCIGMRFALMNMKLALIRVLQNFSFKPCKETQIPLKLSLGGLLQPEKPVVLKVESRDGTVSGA
Description: Thereafter, in order to complete the reaction, an acetonitrile solution containing an internal standard material (Terfenadine) was added thereto, centrifugation (14,000 rpm, 4° C.) was performed for 5 minutes, and a supernatant was injected into a LC-MS/MS system to analyze the metabolites of the substrate drug, thereby evaluating drug metabolism enzyme inhibition by the arylethene derivative of the present invention.

[4] = type: in vitro ADME; details: PBS pH 7.4, 25° C., 5 hours
Description: 3) Parallel Artificial Membrane Permeability Assay (PAMPA) Evaluation
PAMPA is a method which has been developed for testing cell membrane permeability of a material in a test tube, and has been performed using a lipid tri-layer PVDF membrane available from Corning Gentest (NY, US), the used reagents were all purchased from Sigma (MO, US). First, a test material is diluted in PBS (pH 7.4) to a final concentration of 10 mM, 300 mL of the solution is added to the bottom well of a 96-transwell equipped with a PVDF membrane, and 200 mL of PBS is added to the upper well. Then, a plate is reacted at 25° C. for 5 hours, 20 mL of the solution in each well is transferred to a new container, and 80 mL of acetonitrile containing an internal standard material (4 mM chloropropamide) is added thereto. A concentration of the material in the solution is analyzed using LC-MS/MS (ThermoFisher Scientific, MO, US), and the transmittance of the material is calculated according to the equation reported in the reference document. • Reference document: A novel design of artificial membrane for improving the PAMPA model.

CYP1A2 = CYP1A2 (Homo sapiens (Human), UniProt P05177); assay: Cytochrome P450 activity inhibition, CYP1A2; type: in vitro ADME; details: 10 μM, human liver microsomes
Chain of CYP1A2 (P05177 whole entry): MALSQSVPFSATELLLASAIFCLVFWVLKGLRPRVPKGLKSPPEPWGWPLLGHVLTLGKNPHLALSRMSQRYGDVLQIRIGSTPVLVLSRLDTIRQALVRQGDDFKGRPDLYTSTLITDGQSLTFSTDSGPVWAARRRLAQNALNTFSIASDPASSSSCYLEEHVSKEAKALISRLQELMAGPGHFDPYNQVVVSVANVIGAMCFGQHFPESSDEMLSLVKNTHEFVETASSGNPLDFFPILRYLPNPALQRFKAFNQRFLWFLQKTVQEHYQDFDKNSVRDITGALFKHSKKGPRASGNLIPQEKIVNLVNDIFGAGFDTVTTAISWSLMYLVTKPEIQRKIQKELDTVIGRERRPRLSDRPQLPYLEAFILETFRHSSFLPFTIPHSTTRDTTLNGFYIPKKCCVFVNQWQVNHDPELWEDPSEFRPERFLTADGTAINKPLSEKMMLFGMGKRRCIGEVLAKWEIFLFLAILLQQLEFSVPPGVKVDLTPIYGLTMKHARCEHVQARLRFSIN
Excerpt: (§1) 1) Cytochrome P450 (CYP450) Activity Inhibition Evaluation

[5] = type: in vitro ADME, dog; details: 1 μM, 30 minutes, 37° C.
Description: 2) Microsomal Stability Evaluation
as §2

CYP2C19 = CYP2C19 (Homo sapiens (Human), UniProt P33261); assay: Cytochrome P450 activity inhibition, CYP2C19; type: in vitro ADME; details: 10 μM, human liver microsomes
Chain of CYP2C19 (P33261 whole entry): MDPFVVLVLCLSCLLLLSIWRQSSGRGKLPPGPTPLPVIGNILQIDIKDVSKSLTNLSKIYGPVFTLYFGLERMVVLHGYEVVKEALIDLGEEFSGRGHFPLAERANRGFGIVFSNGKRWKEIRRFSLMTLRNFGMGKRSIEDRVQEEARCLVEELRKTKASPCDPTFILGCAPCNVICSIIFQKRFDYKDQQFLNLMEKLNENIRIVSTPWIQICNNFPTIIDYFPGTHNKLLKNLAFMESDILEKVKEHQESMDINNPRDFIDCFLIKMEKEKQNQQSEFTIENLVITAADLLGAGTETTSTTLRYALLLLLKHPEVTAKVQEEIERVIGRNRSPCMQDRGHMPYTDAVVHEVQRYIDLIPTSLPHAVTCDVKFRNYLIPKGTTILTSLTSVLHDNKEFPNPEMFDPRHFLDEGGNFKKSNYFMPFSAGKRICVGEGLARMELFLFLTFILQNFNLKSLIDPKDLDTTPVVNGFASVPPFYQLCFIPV
Excerpt: as §1

CYP2C9 = CYP2C9 (Homo sapiens (Human), UniProt P11712); assay: Cytochrome P450 activity inhibition, CYP2C9; type: in vitro ADME; details: 10 μM, human liver microsomes
Chain of CYP2C9 (P11712 whole entry): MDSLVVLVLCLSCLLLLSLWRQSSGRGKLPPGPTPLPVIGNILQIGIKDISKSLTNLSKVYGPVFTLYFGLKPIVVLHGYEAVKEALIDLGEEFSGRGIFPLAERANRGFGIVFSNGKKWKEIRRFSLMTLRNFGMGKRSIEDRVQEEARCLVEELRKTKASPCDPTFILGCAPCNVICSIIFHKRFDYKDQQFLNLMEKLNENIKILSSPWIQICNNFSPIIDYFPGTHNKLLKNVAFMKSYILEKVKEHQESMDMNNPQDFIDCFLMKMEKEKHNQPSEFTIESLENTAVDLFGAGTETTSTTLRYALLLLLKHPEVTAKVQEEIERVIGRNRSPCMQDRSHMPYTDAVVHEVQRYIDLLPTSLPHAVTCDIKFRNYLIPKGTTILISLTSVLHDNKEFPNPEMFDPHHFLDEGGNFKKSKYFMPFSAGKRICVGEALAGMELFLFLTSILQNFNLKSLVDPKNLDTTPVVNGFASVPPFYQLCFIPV
Excerpt: as §1

CAL-62 cells = assay: 125I uptake assay in anaplastic thyroid cancer cells; type: cell-based
ERR alpha LBD = ERR alpha LBD (Homo sapiens (Human), UniProt P11474); details: read-out: Binding Assay, IC50 ERRα
Chain of ERR alpha LBD (P11474 193-421, species assumed): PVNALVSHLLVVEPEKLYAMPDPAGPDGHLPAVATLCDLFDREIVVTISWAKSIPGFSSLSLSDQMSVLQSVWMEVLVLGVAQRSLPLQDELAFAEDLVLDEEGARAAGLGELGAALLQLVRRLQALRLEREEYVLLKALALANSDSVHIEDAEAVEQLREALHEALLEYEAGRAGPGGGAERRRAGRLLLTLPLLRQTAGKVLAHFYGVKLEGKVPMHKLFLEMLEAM
Description: (§3) The arylethene derivative of the present invention was sequentially added to a 384 well plate from a concentration of 10 μM to a final concentration of two-fold dilution. […] After all reagents were added, a reaction was carried out with gentle shaking at 20° C. for 1 hour, and after the reaction, a binding activity was measured by a TR-FRET method.

CYP2D6 = CYP2D6 (Homo sapiens (Human), UniProt P10635); assay: Cytochrome P450 activity inhibition, CYP2D6; type: in vitro ADME; details: 10 μM, human liver microsomes
Chain of CYP2D6 (P10635 whole entry): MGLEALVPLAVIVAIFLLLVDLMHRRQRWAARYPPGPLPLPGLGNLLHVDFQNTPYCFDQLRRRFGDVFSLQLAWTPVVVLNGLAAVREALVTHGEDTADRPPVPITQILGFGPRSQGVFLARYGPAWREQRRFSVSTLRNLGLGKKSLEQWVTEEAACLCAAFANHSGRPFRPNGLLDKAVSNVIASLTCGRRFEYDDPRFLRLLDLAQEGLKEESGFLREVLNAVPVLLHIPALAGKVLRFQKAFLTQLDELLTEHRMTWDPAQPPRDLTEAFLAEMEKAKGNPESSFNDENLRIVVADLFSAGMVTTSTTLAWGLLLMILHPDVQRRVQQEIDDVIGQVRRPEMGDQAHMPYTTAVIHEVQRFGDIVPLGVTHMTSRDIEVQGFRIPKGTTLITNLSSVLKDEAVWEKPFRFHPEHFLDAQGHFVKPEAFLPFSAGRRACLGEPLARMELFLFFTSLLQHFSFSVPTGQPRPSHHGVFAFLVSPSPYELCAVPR
Excerpt: as §1

[6] = type: in vitro ADME, mouse; details: 1 μM, 30 minutes, 37° C.
Description: 2) Microsomal Stability Evaluation
as §2

pERK1/2 in CAL62 cells = assay: Western blot, phosphorylated ERK1/2 (MAP kinase); type: cell-based; details: selective MEK inhibitor
[7] = molecular target: ER alpha ligand-binding domain (LBD) (Homo sapiens (Human), UniProt P03372); details: beta-estradiol 4 nM as agonist; read-out: Binding Assay, IC50 ERα
Chain of ER alpha ligand-binding domain (LBD) (P03372 whole entry, looked up, the tested form may be a part): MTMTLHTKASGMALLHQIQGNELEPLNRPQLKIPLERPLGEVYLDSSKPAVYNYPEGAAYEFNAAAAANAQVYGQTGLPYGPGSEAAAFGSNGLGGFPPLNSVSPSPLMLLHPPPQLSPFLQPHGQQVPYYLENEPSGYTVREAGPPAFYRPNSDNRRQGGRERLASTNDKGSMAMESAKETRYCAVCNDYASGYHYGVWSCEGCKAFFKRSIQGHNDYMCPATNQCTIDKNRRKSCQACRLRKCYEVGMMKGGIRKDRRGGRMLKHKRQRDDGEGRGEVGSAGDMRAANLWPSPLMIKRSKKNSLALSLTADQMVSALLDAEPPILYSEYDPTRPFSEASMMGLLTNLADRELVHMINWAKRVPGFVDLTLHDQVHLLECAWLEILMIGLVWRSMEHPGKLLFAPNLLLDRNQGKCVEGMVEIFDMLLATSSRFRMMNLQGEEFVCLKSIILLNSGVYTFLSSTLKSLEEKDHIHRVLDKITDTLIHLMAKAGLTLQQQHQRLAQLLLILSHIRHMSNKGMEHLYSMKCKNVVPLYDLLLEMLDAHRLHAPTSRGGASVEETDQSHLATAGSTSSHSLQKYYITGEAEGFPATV
Description: as §3

ATC mouse tumor model = details: cited from earlier work

Row | SMILES | MS (Microsomal Stability) (%) rat [1] [%] | MS (Microsomal Stability) (%) human [2] [%] | Functional Assay, Cpds/Ref 5182 (ERRγ) | CYP inhibition (% of control) 1A2 (CYP1A2) | CYP inhibition (% of control) 2C19 (CYP2C19) | CYP inhibition (% of control) 2C9 (CYP2C9) | also measured
1 | Cc1ccc(/C(=C(\CCCO)c2ccccc2)c2ccc(C3CCN(C)CC3)cc2)cc1 [Compound 22f] | 80.0 | 97.0 | – | – | – | – | –
2 | Cc1ccc(/C(=C(\CCCO)c2ccccc2)c2ccc(N3CCN(C(C)C)CC3)cc2)cc1 [Compound 18b] | 40.0 | – | 0.78 | – | – | – | BA [3]: 8.7%; CYP inhibition (% of control) 3A4 (CYP3A4): 53 % of control
3 | C[Si](C)(CN1CCCCC1)c1ccc(/C(=C(/CCCO)c2ccccc2)c2ccc(O)cc2)cc1 [Compound 42b] | – | – | – | – | – | – | Permeability Pampa [4]: 0.1 10^−6 cm/s
4 | CCN1CCN(c2ccc(/C(=C(/CCCO)c3ccccc3)c3ccc(C)cc3)cc2)CC1 [Compound 18j] | – | – | – | >100 % of control | 74 % of control | 87 % of control | MS (Microsomal Stability) (%) dog [5]: 58.0%
5 | [K+].[O-][Cl+3]([O-])([O-])[O-] [KClO4, reference compound] | – | – | – | – | – | – | block of radioactive iodine uptake increased in compound 18a-treated cells (CAL-62 cells; co-incubated with compound 18a-treated CAL62 cells): completely blocks
6 | OCCC/C(=C(/c1ccc(C2CCN(C3CC3)CC2)cc1)c1cccc(O)c1)c1ccccc1 [Compound 22r] | – | 62.0 | – | >100 % of control | >100 % of control | >100 % of control | –
7 | OCCC/C(=C(\c1ccc(O)cc1)c1ccc(OCCN2C[C@H]3C[C@H]3[C@H]2CO)cc1)c1ccccc1 [Compound 38d] | 11.7 | 6.9 | 0.77 | 79.2 % of control | 58.8 % of control | 55.3 % of control | IC50 (ERR alpha LBD): > 10 µM; CYP inhibition (% of control) 2D6 (CYP2D6): 54.3 % of control; CYP inhibition (% of control) 3A4 (CYP3A4): 57.6 % of control; MS (Microsomal Stability) (%) mouse [6]: 11.8%
8 | COc1cccc(-c2cc(=O)c3ccccc3o2)c1N [PD98059, reference compound] | – | – | – | – | – | – | inhibition of the relative increase of phosphorylated ERK1 and ERK2 by compound 18a (pERK1/2 in CAL62 cells): completely inhibited; inhibition of the radioactive iodine uptake increase by compound 18a (CAL-62 cells; selective MEK inhibitor, pre-incubated 30 minutes): completely inhibited
9 | Nc1ccc(/C(=C(\CCCO)c2ccccc2)c2ccc(C3CCN(C4CC4)CC3)cc2)cc1 [Compound 26d] | – | – | – | >100 % of control | >100 % of control | – | Permeability Pampa [4]: 1.04 10^−6 cm/s
10 | OCCC/C(=C(\c1ccc(O)cc1)c1ccc(N2CCN(C3CCCC3)CC2)cc1)c1ccccc1 [Compound 22n] | – | – | – | 99 % of control | 83 % of control | – | MS (Microsomal Stability) (%) dog [5]: 72.0%
11 | CC(C)N1CCC(c2ccc(/C(=C(/CCCO)c3ccccc3)c3cccc(O)c3)cc2)C1 (racemic) [Compound 22u] | – | 40.0 | – | – | – | – | MS (Microsomal Stability) (%) dog [5]: 10.0%
12 | Cc1ccc(/C(=C(\CCCO)c2ccccc2)c2ccc(C3CNC3)cc2)cc1 [Compound 20d] | 54 | 83 | 0.81 | – | – | – | –
13 | OCCC/C(=C(\c1ccc(O)cc1)c1ccc(OCCN2C[C@H]3CNC[C@H]3C2)cc1)c1ccccc1 [Compound 40, 4-((Z)-1-(4-(2-((3aR,6aS)-hexahydropyrrolo[3,4-c]pyrrol-2(1H)-yl)ethoxy)phenyl)-5-hydroxy-2-phenylpent-1-en-1-yl)phenol] | 72.0 | – | 0.96 | – | – | – | –
14 | CC(C)N1CCN(c2ccc(/C(=C(/CCCO)c3ccccc3)c3ccc(NS(C)(=O)=O)cc3)cc2)CC1 [Compound 27a, (E)-N-(4-(5-hydroxy-1-(4-(4-isopropylpiperazin-1-yl)phenyl)-2-phenylpent-1-en-1-yl)phenyl)methanesulfonamide] | 65.0 | – | – | – | – | – | –
15 | Cl.Cl.OCCC/C(=C(\c1ccc(O)cc1)c1ccc(OCCN2CCNCC2)cc1)c1ccccc1 [Compound 7a, (Z)-4-(5-hydroxy-2-phenyl-1-(4-(2-(piperazin-1-yl)ethoxy)phenyl)pent-1-en-1-yl)phenol 2hydrochloride Salt] | – | 49.0 | 0.86 | – | – | – | –
16 | N#CC(=C(/N)Sc1ccccc1N)/C(C#N)=C(\N)Sc1ccccc1N [Compound U0126, U0126] | – | – | – | – | – | – | inhibition of the relative increase of phosphorylated ERK1 and ERK2 by compound 18a (pERK1/2 in CAL62 cells): completely inhibited
17 | Cc1ccc(/C(=C(\CCCO)c2ccccc2)c2ccc(N3CCNCC3)cc2)cc1 [Compound 20b] | – | 44 | 0.88 | – | – | – | MS (Microsomal Stability) (%) dog [5]: 58%
18 | CN1CCC[C@H]1COc1ccc(/C(=C(/CCCO)c2ccccc2)c2ccc(O)cc2)cc1 [Compound 6h] | – | – | – | 103 % of control | 83.2 % of control | 62.8 % of control | IC50 (ERR alpha LBD): > 10 µM; CYP inhibition (% of control) 2D6 (CYP2D6): 90.7 % of control; CYP inhibition (% of control) 3A4 (CYP3A4): 75.4 % of control
19 | CC(C)N1CCC(c2ccc(/C(=C(/CCCO)c3ccccc3)c3cccc(O)c3)cc2)CC1 [Compound 22m] | – | – | – | 97 % of control | >100 % of control | – | MS (Microsomal Stability) (%) dog [5]: 55.0%
20 | CC(C)N1CCC(c2ccc(/C(=C(/CCCO)c3ccccc3)c3ccc(O)cc3)cc2)CC1 [Compound 22k] | 69.0 | – | 0.83 | >100 % of control | >100 % of control | 97 % of control | Functional Assay at 10 μM (% of control), Cpds (ERRγ): 0.77 % of control
21 | Cc1ccc(/C(=C(\CCCO)c2ccccc2)c2ccc(C3CCNCC3)cc2)cc1 [Compound 20k] | 89.0 | – | – | – | – | – | –
22 | CN1CCN(c2ccc(/C(=C(/CCCO)c3ccccc3)c3ccc(Br)cc3)cc2)CC1 [Compound 18e] | – | – | 0.89 | >100 % of control | 84.6 % of control | 91.3 % of control | IC50 (ERR alpha LBD): > 10 µM; Functional Assay at 10 μM (% of control), Cpds (ERRγ): 2.6 % of control; AUCINF ([3]; IV 1 mg/kg): 0.06 μMh; AUCall ([3]; IV 1 mg/kg): 0.06 μMh; Vss ([3]; IV 1 mg/kg): 39.1 L/kg; t1/2 ([3]; IV 1 mg/kg): 0.8 h; AUCINF ([3]; PO 10 mg/kg): 0.09 μMh; AUCall ([3]; PO 10 mg/kg): 0.07 μMh; Cmax ([3]; PO 10 mg/kg): 10 nM; Tmax ([3]; PO 10 mg/kg): 2.8 h; BA [3]: 11.5%; CYP inhibition (% of control) 2D6 (CYP2D6): >100 % of control; CYP inhibition (% of control) 3A4 (CYP3A4): 84 % of control; Permeability Pampa [4]: 1.11 10^−6 cm/s; IC50 [7]: > 10 µM
23 | CN(C)CCOc1ccc(/C(=C(/CCCO)c2ccccc2)c2ccc(O)cc2)cc1 [GSK5182, reference compound] | – | – | – | 84.6 % of control | 78.2 % of control | 72.9 % of control | BA [3]: 8.4%; CYP inhibition (% of control) 2D6 (CYP2D6): 82.3 % of control; radioiodine uptake in the tumor (ATC mouse tumor model): not increased; CYP inhibition (% of control) 3A4 (CYP3A4): 83 % of control
